Some results are limits rather than exact numbers.

Data set [1] concerns Penicillium. Nature of the data set: Antifungal activity against Penicillium inclobium after 72 to 96 hr by disk diffusion method. The class given is functional. A general note: Agar diffusion results depend on both activity and mobility in agar.
Data set [2] concerns Aspergillus flavus. The data set is described as follows: Antifungal activity against Aspergillus flavus after 72 to 96 hr by disk diffusion method. The class given is functional.
The subject of data set [3] is Staphylococcus aureus. Nature of the data set: Antibacterial activity against Staphylococcus aureus at 25 ug/ml after 24 hr by disk diffusion method. The class given is functional. The following applies: read-out: IZ.
Data set [4] relates to Bacillus subtilis. Nature of the data set: Antibacterial activity against Bacillus subtilis at 25 ug/ml after 24 hr by disk diffusion method. The class given is functional. The note with it: read-out: IZ.
For data set [5], the system named is Escherichia coli. The data set is described as follows: Antibacterial activity against Escherichia coli at 25 ug/ml after 24 hr by disk diffusion method. The note with it: read-out: IZ. The class given is functional.
Data set [6] has as its system Penicillium. Nature of the data set: Antifungal activity against Penicillium inclobium at 25 ug/ml after 72 to 96 hr by disk diffusion method. The following applies: read-out: IZ. The class given is functional.
For data set [7], the system named is Aspergillus flavus. The data set is described as follows: Antifungal activity against Aspergillus flavus at 25 ug/ml after 72 to 96 hr by disk diffusion method. The note with it: read-out: IZ. The class given is functional.
In data set [8] the test system is Klebsiella pneumoniae. Nature of the data set: Antibacterial activity against Klebsiella pneumoniae at 25 ug/ml after 24 hr by disk diffusion method. The following applies: read-out: IZ. The class given is functional.
Data set [9] concerns Bacillus subtilis. Nature of the data set: Antibacterial activity against Bacillus subtilis at 50 ug/ml after 24 hr by disk diffusion method. The class given is functional. The following applies: read-out: IZ.
Data set [10] relates to Staphylococcus aureus. Nature of the data set: Antibacterial activity against Staphylococcus aureus at 50 ug/ml after 24 hr by disk diffusion method. The class given is functional. The note with it: read-out: IZ.
In data set [11] the test system is Aspergillus flavus. The data set is described as follows: Antifungal activity against Aspergillus flavus at 50 ug/ml after 72 to 96 hr by disk diffusion method. The class given is functional. The following applies: read-out: IZ.
Data set [12] deals with Klebsiella pneumoniae. Nature of the data set: Antibacterial activity against Klebsiella pneumoniae at 50 ug/ml after 24 hr by disk diffusion method. The class given is functional. The following applies: read-out: IZ.
In data set [13] the test system is Penicillium. The data set is described as follows: Antifungal activity against Penicillium inclobium at 50 ug/ml after 72 to 96 hr by disk diffusion method. The class given is functional. The note with it: read-out: IZ.
Data set [14] concerns Escherichia coli. The data set is described as follows: Antibacterial activity against Escherichia coli at 50 ug/ml after 24 hr by disk diffusion method. The class given is functional. The following applies: read-out: IZ.
A short description of data set [15]: Toxicity in po dosed Mus musculus albino (mouse). The class given is organism-based. The following applies: in vivo.
In data set [16] the test system is Klebsiella pneumoniae. Nature of the data set: Antibacterial activity against Klebsiella pneumoniae after 24 hr by disk diffusion method. The class given is functional.
In data set [17] the test system is Staphylococcus aureus. The data set is described as follows: Antibacterial activity against Staphylococcus aureus after 24 hr by disk diffusion method. The class given is functional.
The subject of data set [18] is Bacillus subtilis. Nature of the data set: Antibacterial activity against Bacillus subtilis after 24 hr by disk diffusion method. The class given is functional.
Data set [19] concerns Escherichia coli. Nature of the data set: Antibacterial activity against Escherichia coli after 24 hr by disk diffusion method. The class given is functional.
Data set [20] concerns Klebsiella pneumoniae. The data set is described as follows: Antibacterial activity against Klebsiella pneumoniae at 100 ug/ml after 24 hr by disk diffusion method. The class given is functional. The note with it: read-out: IZ.
The subject of data set [21] is Bacillus subtilis. The data set is described as follows: Antibacterial activity against Bacillus subtilis at 100 ug/ml after 24 hr by disk diffusion method. The class given is functional. The note with it: read-out: IZ.
The test system of data set [22] is Escherichia coli. Nature of the data set: Antibacterial activity against Escherichia coli at 100 ug/ml after 24 hr by disk diffusion method. The class given is functional. The following applies: read-out: IZ.
Data set [23] has as its system Staphylococcus aureus. The data set is described as follows: Antibacterial activity against Staphylococcus aureus at 100 ug/ml after 24 hr by disk diffusion method. The class given is functional. The following applies: read-out: IZ.
Data set [24] relates to Penicillium. Nature of the data set: Antifungal activity against Penicillium inclobium at 100 ug/ml after 72 to 96 hr by disk diffusion method. The following applies: read-out: IZ. The class given is functional.
The subject of data set [25] is Aspergillus flavus. Nature of the data set: Antifungal activity against Aspergillus flavus at 100 ug/ml after 72 to 96 hr by disk diffusion method. The class given is functional. The following applies: read-out: IZ.

In the case of `COC1=CC(=O)C[C@@H](C)[C@]12Oc1c(Cl)c(OC)cc(OC)c1C2=O` [GRISEOFULVIN], the “inhibition zone (IZ)” value in the data set with Penicillium [1] and with Aspergillus flavus [2] was 22 mm in each case.

For the compound `COCN1C(c2ccc(Cl)cc2)CS(=O)(=O)CC1c1ccc(Cl)cc1` (stereo unspecified), the zone of inhibition at 25 µg/mL with Staphylococcus aureus [3] worked out at 15 mm; with Bacillus subtilis [4], 15 mm; in the data set on Escherichia coli [5], 16 mm; with Penicillium [6] it was 14 mm; in the data set with Aspergillus flavus [7], 12 mm; in the data set on Klebsiella pneumoniae [8], 16 mm.

Regarding `COCN1C(c2ccc(OC)cc2)CS(=O)(=O)CC1c1ccc(OC)cc1` (stereo unspecified), the zone of inhibition at 50 µg/mL in the data set with Bacillus subtilis [9] was 12 mm; in the data set with Staphylococcus aureus [10] it was 12 mm; in the data set on Aspergillus flavus [11], 10 mm; in the data set with Klebsiella pneumoniae [12], 11 mm; in the data set with Penicillium [13] it was 11 mm; in the data set with Escherichia coli [14] it was 11 mm.

In general, LD50 refers to the dose expected to kill half of the subjects tested. Low readings indicate a more toxic substance, high ones a less toxic substance. Compound `O=S1(=O)CC(c2ccc(Cl)cc2)NC(c2ccc(Cl)cc2)C1` (stereo unspecified) had a 50% lethal dose (LD50) in data set [15] not above 1000 mg/kg.

`CCn1cc(C(=O)O)c(=O)c2cc(F)c(N3CCNCC3)cc21` [NORFLOXACIN]: the “inhibition zone (IZ)” value in the data set on Klebsiella pneumoniae [16], with Staphylococcus aureus [17], in the data set with Bacillus subtilis [18] and with Escherichia coli [19] was 22 mm throughout.

As for `COCN1C(c2ccccc2)CS(=O)(=O)CC1c1ccccc1` (stereo unspecified), the zone of inhibition at 100 µg/mL in the data set on Klebsiella pneumoniae [20] is 7 mm; in the data set with Bacillus subtilis [21] it was 6 mm; with Escherichia coli [22], 9 mm; with Staphylococcus aureus [23], 7 mm; in the data set with Penicillium [24] it was 7 mm; with Aspergillus flavus [25], 6 mm.

On to `O=S1(=O)CC(c2ccc(Cl)cc2)N(CO)C(c2ccc(Cl)cc2)C1` (stereo unspecified), for which, in data set [15], the LD50 is not above 1000 mg/kg.
